From patent US20090286750A1, “USE OF RIBOSE IN LESSENING THE CLINICAL SYMPTOMS OF ABERRANT FIRING OF NEURONS” (priority 2008, published 2009)
Like-named read-outs stand apart in the source and are kept apart here.

What was measured:
[1] = cited from earlier work
[2] = system: two familial males with RLS; experiment: Restless Legs Syndrome case study, oral D-ribose at three dosing regimens; type: in vivo, human
Source text: We present a report on two familial males with RLS in which the supplementation of D-ribose produced a benefit in lessening the occurrence and severity of their daily symptoms. Both affected male individuals were from a positive family prevalence, three generations carrying the diagnosis of RLS. These males involved the latter two generations, parent and child, respectively. Both men had no underlying medical conditions. Their symptoms of RLS date back for decades and presently have progressed to the moderate to severe discomfort stage, mainly experienced during sedentary periods throughout the day with exacerbation of symptoms during nocturnal sleep. Both individuals were introduced to D-ribose. To evaluate any potential benefits of D-ribose in RLS, each individual orally consumed D-ribose (five grams per dose) daily at different trial dosing regimens. Each trial dosing regimen lasted for three weeks with a two week interval washout between dosing regimens. The initial regimen involved a single dose of oral D-ribose consumed only at breakfast. The second dosing regimen involved consumption of oral D-ribose at breakfast and lunch. In the last dosing regiment, oral D-ribose was taken with all meals, breakfast, lunch and dinner. A diary pertaining to the documentation and severity of RLS symptoms was compiled. The two week washout period between stages was designed to observe any return or worsening of their symptoms. […] Following completion of all dosing regimens of oral D-ribose and with the final wash out period, both males elected to re-start oral dosing of D-ribose at 5 grams/doses three times a day.

[3] = system: two familial males with RLS; conditions: oral dosage below eight grams at a time, no more often than every two hours; cited from earlier work
[4] = Serum D-Ribose levels and half life after infusion or oral administration; type: in vivo, human
Description: D-Ribose is found at low levels in the diet and normal serum levels are approximately 2 mg/dl. […] When infused for short periods at the concentrations of 60 mg/kg and 100 mg/kg, D-Ribose levels in the serum rose, in each case, to approximately 25 mg/dl. These doses of D-Ribose, for a 60 kilogram man, are 3.6 and 5 grams, respectively. Doses for larger or smaller size humans can be calculated based on their mass, and are typically 1 to 10 grams. […] Intravenous administration of high doses of D-Ribose can elevate the serum levels to as high as 60 mg/dl, while a further increase in dose to 222.2 mg/kg can produce a serum level as high as 86 mg/dl. See, for example, Gross et al., Klinische Wochenschrift (1991) 69:31-36.
Serum D-ribose levels should be maintained long enough to establish an effect that will persist after the serum D-ribose level is back to baseline levels. […] Typically, approximately a third of the cardiac output is used to supply energy to the brain.

[5] = regardless of the measured serum level of D-Ribose; cited from earlier work
[6] = oral 5 g at breakfast and lunch, three weeks
[7] = oral 5 g at breakfast, lunch and dinner, three weeks
[8] = oral 5 g, single dose at breakfast, three weeks

Structure (SMILES): O=C[C@H](O)[C@H](O)[C@H](O)CO [D-Ribose]
- normal serum levels of D-Ribose ([1]; baseline, from diet): approximately 2 mg/dl
- D-Ribose level in the serum ([1]; infused for short periods at 60 mg/kg): approximately 25 mg/dl
- D-Ribose level in the serum ([1]; infused for short periods at 100 mg/kg): approximately 25 mg/dl
- half life of D-Ribose in the serum ([1]; infusion 60 mg/kg): 11 min
- half life of D-Ribose in the serum ([1]; infusion 100 mg/kg): 16 min
- serum D-Ribose level ([1]; intravenous administration of high doses): ≤ 60 mg/dL
- serum D-Ribose level ([1]; intravenous, further increase in dose to 222.2 mg/kg): ≤ 86 mg/dL
- serum D-Ribose level ([1]; oral, four hours of 83.2 mg/kg per hour): 29.25 mg/dL
- serum D-Ribose level ([1]; oral, four hours of 166.7 mg/kg per hour): 35 mg/dL
- washout complete after ceasing D-ribose supplementation ([2]; RLS study): 48 h
- leg twitching events and urge to move during the day [2, 6]: reduced for one of the subjects and rarely present in the other
- nocturnal symptoms [2, 6]: still experienced the unpleasant sensations during the night
- diurnal symptoms [2, 7]: total elimination
- nocturnal symptoms [2, 7]: of a much lesser degree and had a later occurrence
- general feeling (energy, fatigue) [2, 8]: more energy and less fatigue
- symptoms of RLS [2, 8]: without any significant changes
- adverse reactions ([2]; oral 5 grams/dose three times a day): without any adverse reactions
- severity and onset of symptoms affecting quality of life ([2]; re-started oral 5 grams/dose three times a day): substantially improved
- time to return of clinical RLS symptoms after cessation of oral D-ribose ([2]; washout period): ≤ 48 h
- side effects [3]: no side effects
- time for serum D-Ribose levels to drop to near baseline of two mg/dl ([4]; at a 15 minute half life): within an hour
- half-life ([4]; human, serum, assumed from the above oral pharmacokinetic information): 15 min
- decline in serum glucose, ultimate lower level [5]: 25%
